Article PMC5617977, “Antibacterial Activity and Toxicity of Analogs of Scorpion Venom IsCT Peptides” (Antibiotics, 2017)
Entries after “also recorded” stand apart in the source; their conditions may differ. Where no end group is shown, it is not given here.

Assays:
[1] = test system: Bacillus cereus (ATCC# 11778); experiment: Antibacterial activity, standard broth (liquid) dilution; format: cell-based; conditions: for MIC B. cereus: Luria Bertani broth, peptide 1, 10, 50, 100 μg/mL, 37 °C, 24 h, absorbance 600 nm, MIC interpolated at 0% bacterial growth, average of three independent experiments
Protocol: (§1) Antimicrobial activities were determined by standard broth dilution against two Gram-positive and three Gram-negative bacteria. In general, the MICs seem to be higher than the concentrations tested in our experiments (Table 3). Only Staphylococcus aureus and Escherichia coli seem to be inhibited with both natural peptides but also by the leucine substituted analogue, IsCT1L1, at concentrations lower than 25 μg/mL. […] Curiously, some peptides—such as IsCT1V1, IsCT1E7, or even natural IsCT1—when tested with Bacillus cereus show significant bacteria growth inhibition at concentrations lower than 10 μg/mL.
(§2) Two Gram-positive bacteria: Staphylococcus aureus (ATCC# 29213) and Bacillus cereus (ATCC# 11778); and three Gram-negative bacteria: Salmonella typhimurium (ATCC# 14028), Enterobacter aerogenes (ATCC# 13048), and Escherichia coli (ATCC# 25922) were tested.
(§3) Activity was determined by the standard liquid dilution method described previously. All results are the average of three independent experiments. Briefly, cells were grown overnight at 37 °C in Luria Bertani broth and diluted in the same medium for assays. Bacteria were added to serial dilutions of the peptides (final concentrations of 1, 10, 50, and 100 μg/mL) and incubated at 37 °C for 24 h. Cell growth was measured by UV absorbance at 600 nm. For each bacterium, a solution containing no peptide (concentration 0 μg/mL) was processed under identical conditions and used as control for 100% bacterial growth. MICs were obtained from interpolation of 0% bacterial growth from plots. Results are the average of three independent experiments.

[2] = test system: Enterobacter aerogenes (ATCC# 13048); experiment: as above; format: cell-based; conditions: Luria Bertani broth, peptide 1, 10, 50, 100 μg/mL, 37 °C, 24 h, absorbance 600 nm; MIC interpolated at 0% bacterial growth; average of three independent experiments
Protocol: as §1, §2, §3

[3] = test system: Escherichia coli (ATCC# 25922); experiment: as above; format: cell-based; conditions: Luria Bertani broth, peptide 1, 10, 50, 100 μg/mL, 37 °C, 24 h, absorbance 600 nm; MIC interpolated at 0% bacterial growth; average of three independent experiments
Protocol: as §1, §2, §3

[4] = test system: Salmonella typhimurium (ATCC# 14028); experiment: as above; format: cell-based; conditions: Luria Bertani broth, peptide 1, 10, 50, 100 μg/mL, 37 °C, 24 h, absorbance 600 nm; MIC interpolated at 0% bacterial growth; average of three independent experiments
Protocol: as §1, §2, §3

[5] = test system: Staphylococcus aureus (ATCC# 29213); experiment: as above; format: cell-based; conditions: Luria Bertani broth, peptide 1, 10, 50, 100 μg/mL, 37 °C, 24 h, absorbance 600 nm; MIC interpolated at 0% bacterial growth; average of three independent experiments
Protocol: as §1, §2, §3

human erythrocytes = experiment: Hemolytic activity; format: cell-based; conditions: 1% human erythrocytes in 1× PBS, peptide 1, 10, 50, 100 μg/mL, 37 °C, 1 h, hemoglobin at 416 nm, 100% control 1% TritonX-100; average of two independent experiments
Protocol: Hemolytic activity was carried out as described previously. Briefly, serial concentrations of peptides (final concentrations of 0 as blank, 1, 10, 50, and 100 μg/mL) were added to 1% human erythrocytes in 1× PBS buffer. The cell suspensions were incubated at 37 °C for 1 h and then centrifuged to remove unlysed erythrocytes. Released hemoglobin was determined spectrophotometrically at 416 nm. The control for 100% release of hemoglobin was a sample of 1% erythrocyte incubated in PBS with 1% TritonX-100. Results are the average of two independent experiments.

[6] = test system: Pseudomonas aeruginosa and Proteus mirabilis; conditions: printed as 100 or more than 200; ref Dai [21]; cited from earlier work
Protocol: (§4) Studies of bacterial inhibition carried out by Dai with IsCT1 and IsCT2 natural peptides show a range of MICs of 1 to 5 μg/mL for different strains of S. aureus and 10 to 25 μg/mL for two strains of Bacillus. For Gram-negative bacteria, they show 5 to 120 μg/mL for two strains of E. coli but 100 or more than 200 μg/mL for other strains of Gram-negative bacteria (Pseudomonas aeruginosa and Proteus mirabilis). Bacterial inhibition studies by Kim with IsCT show MICs of 6 μg/mL for E. coli and 3 μg/mL for S. aureus and, for the IsCT1K7 analog, the reported concentrations are 3 and 1.5 μg/mL ...

E. coli = conditions: ref Kim [16]; cited from earlier work
Protocol: as §4

S. aureus = conditions: ref Kim [16]; cited from earlier work
Protocol: as §4

| Substance | MIC B. cereus [1] | MIC E. aerogenes [2] | MIC E. coli [3] | MIC S. typhimurium [4] | MIC S. aureus [5] | Hemolytic activity (in words) (human erythrocytes) | MIC, other Gram-negative strains (Pseudomonas aeruginosa and Proteus mirabilis) [6] | concentration showing significant bacteria growth inhibition, Bacillus cereus ([1]; inhibition at low concentration, then plateau or slight increase of growth at higher concentrations (Figure S2)) | MIC E. coli (E. coli) | MIC S. aureus (S. aureus) |
| --- | --- | --- | --- | --- | --- | --- | --- | --- | --- | --- |
| IFGAIWNGIKSLF-NH2 [IsCT2, reference compound] | 100 µg/mL | >100 µg/mL | 50 µg/mL | 100 µg/mL | 50 µg/mL | highest hemolytic activity | ≥ 100 µg/mL | – | – | – |
| ILGAAWNGAKSLF-NH2 [IsCT2A1, alanine substituted (positions 5 and 9) analog of IsCT2] | >100 µg/mL | >100 µg/mL | >100 µg/mL | >100 µg/mL | >100 µg/mL | – | – | – | – | – |
| ILGAVWNGVKSLF-NH2 [IsCT2V1, valine substituted (positions 5 and 9) analog of IsCT2] | >100 µg/mL | >100 µg/mL | >100 µg/mL | >100 µg/mL | >100 µg/mL | – | – | – | – | – |
| ILGKAWEGAKSLF-NH2 [IsCT1A1] | >100 µg/mL | >100 µg/mL | >100 µg/mL | >100 µg/mL | >100 µg/mL | – | – | – | – | – |
| ILGKIWEGIESLF-NH2 [IsCT1E7] | >100 µg/mL | >100 µg/mL | >100 µg/mL | >100 µg/mL | >100 µg/mL | no toxicity at all; also recorded: do not have any apparent citotoxicity; also recorded: no apparent cytotoxicity | – | – | – | – |
| ILGKIWEGIKSLF-NH2 [IsCT1, reference compound] | >100 µg/mL | >100 µg/mL | 50 µg/mL | 100 µg/mL | 50 µg/mL | highest hemolytic activity | ≥ 100 µg/mL | lower than 10 μg/mL | 6 µg/mL | 3 µg/mL |
| ILGKIWKGIKSLF-NH2 [IsCT1K7] | >100 µg/mL | >100 µg/mL | >100 µg/mL | 100 µg/mL | 100 µg/mL | highest hemolytic activity | – | – | – | – |
| ILGKLWEGLKSLF-NH2 [IsCT1L1] | >100 µg/mL | >100 µg/mL | 50 µg/mL | 100 µg/mL | 50 µg/mL | highest hemolytic activity; also recorded: toxicity similar to the wild type peptides | – | – | – | – |
| ILGKVWEGVKSLF-NH2 [IsCT1V1] | >100 µg/mL | >100 µg/mL | >100 µg/mL | >100 µg/mL | >100 µg/mL | – | – | – | – | – |
